Where two headings read alike, the source gives them in different places.
System: human Th17 cells
Test: Cytokine response by in vitro-polarized human Th17 cells stimulated with PMA/ionomycin
Type: cell-based
Conditions: 10 μM compound, PMA/ionomycin 20 h
Description: In vitro differentiation of human Th17 cells: Human CD4+ T cells (isolated as described in protocol A) were polarized into Th17 cells as follows: Tissue culture-treated 100 mm plates (Corning, Corning, N.Y.) were coated with 10 μg/ml anti-human CD3 clone OKT3 antibody overnight at 4° C. Polarization was initiated by seeding approximately 2-3 e7 human CD4+ T cells onto the anti-CD3 plates in Polarization media consisting of: RPMI 1640 medium (Lonza, Allendale, N.J.) supplemented with 10% (v/v) charcoal-dextran treated, heat inactivated FBS (Omega Scientific, Tarzana, Calif.), 0.05 mM 2-Mercaptoethanol (Sigma-Aldrich, St. Louis, Mo.), and 1×Pen/Strep Amphotericin B (Lonza), with added recombinant human IL-23 (40 ng/ml) and anti-CD28 clone CD28.2 antibody (2 μg/ml); all recombinant human cytokines and anti-human neutralizing antibodies were purchased from eBioscience (San Diego, Calif.). Cells were incubated in the above Polarization media for 3 days at 37° C. in a humidified atmosphere at 5% CO2. After 3 days, the Polarization media was replaced with Maintenance media, consisting of RPMI 1640/FBS/2-Mercaptoethanol/Pen/Strep Amphotericin B supplemented with recombinant human IL-23 (40 ng/ml) alone, and the cells were re-plated onto regular tissue-culture-treated plates (not anti-CD3 coated). Cells were incubated in the Maintenance media for an additional 3 days at 37° C. in a humidified atmosphere at 5% CO2.
Inhibition of PMA/ionomycin-stimulated cytokine response by in vitro-differentiated human Th17 cells: Human Th17 cells, generated as described above, were seeded at 2e6 cells/ml in RPMI 1640 containing 10% (v/v) charcoal-dextran treated, heat inactivated FBS (Omega Scientific, Tarzana, Calif.), 0.05 mM 2-Mercaptoethanol (Sigma-Aldrich, St. Louis, Mo.), and 1×Pen/Strep Amphotericin B (Lonza, Allendale, N.J.). Cells were pre-treated with test compounds (10 μM) for 1 h at 37° C. in a humidified atmosphere at 5% CO2. Cells were then stimulated with 50 ng/ml phorbol 12-myristate 13-acetate (PMA) (Sigma-Aldrich, St. Louis, Mo.)+1 μg/ml ionomycin (Life Technologies, Grand Island, N.Y.) for 20 h at 37° C. in a humidified atmosphere at 5% CO2. Supernatant was collected and analyzed using Bio-Plex Pro Human Th17 Cytokine 15-Plex Panel (Bio-Rad Laboratories, Hercules, Calif.) as per manufacturer's protocols. Magnetic beads were read on the Bio-Plex MAGPIX multiplex reader instrument using the accompanying xPONENT 4.2 acquisition software (Bio-Rad Laboratories). Data were analyzed via the Bio-Plex Manager software v6.1 (Bio-Rad Laboratories). Cytokine secretion levels from Th17 cells treated with 0.1% DMSO+Stimulation were normalized to 100%.
IL-1β, IL-25, and IL-33 were below the limit of detection under conditions used. The concentrations of the observed analytes from top to bottom, as listed, are as follows: 8899, 567, 174, 99, 10380, 511, 239, 548, 81, 966, 504, and 76223 pg/ml.

[1] = read-out: Percent inhibition of IFNγ (relative to DMSO control)
[2] = read-out: Percent inhibition of IL-4 (relative to DMSO control)
[3] = read-out: Percent inhibition of IL-6 (relative to DMSO control)
[4] = read-out: Percent inhibition of IL-10 (relative to DMSO control)
[5] = read-out: Percent inhibition of IL-17A (relative to DMSO control)
[6] = read-out: Percent inhibition of IL-17F (relative to DMSO control)
[7] = read-out: Percent inhibition of IL-21 (relative to DMSO control)
[8] = read-out: Percent inhibition of IL-22 (relative to DMSO control)
[9] = read-out: Percent inhibition of IL-23 (relative to DMSO control)
[10] = read-out: Percent inhibition of IL-31 (relative to DMSO control)
[11] = read-out: Percent inhibition of TNFα (relative to DMSO control)
[12] = read-out: Percent inhibition of sCD40L (relative to DMSO control)

SMILES | inhibition at 10 µM [1] [%] | inhibition at 10 µM [2] [%] | inhibition at 10 µM [3] [%] | inhibition at 10 µM [4] [%] | inhibition at 10 µM [5] [%] | inhibition at 10 µM [6] [%] | inhibition at 10 µM [7] [%] | inhibition at 10 µM [8] [%] | inhibition at 10 µM [9] [%] | inhibition at 10 µM [10] [%] | inhibition at 10 µM [11] [%] | inhibition at 10 µM [12] [%]
CCOc1cc(C(=O)N2CCC(N3CCCC3)CC2)ccc1Nc1cc2c(cn1)N(C)C(=O)c1ccccc1N2C [Compound 46, 3-(2-Ethoxy-4-(4-(pyrrolidin-1-yl)piperidine-1-carbonyl)phenylamino)-5,11-dimethyl-5H-benzo[e]pyrido[3,4-b][1,4]diazepin-10(11H)-one] | 11.9 | -2.8 | 90.6 | 79.7 | 56.6 | 81.8 | -6.1 | 74 | -58.8 | -3 | 22 | 36.3
CCOc1cc(C(=O)NCC2CC2)ccc1Nc1cc2c(cn1)N(C)C(=O)c1ccccc1N2C [Compound 57] | 17.4 | -11.8 | 93.1 | 80 | 49.5 | 67.4 | 28.6 | 76.8 | 29.8 | 3 | 5.6 | 32.3
CCOc1cc(C(=O)N2CCC(N3CCN(C)CC3)CC2)ccc1Nc1cc2c(cn1)N(C)C(=O)c1ccccc1N2C [Compound 61] | 7.6 | -19.5 | 91.4 | 78.6 | 37.5 | 80.9 | 22.4 | 65.8 | -2.8 | -1.1 | -6.3 | 19
CCOc1cc(C(=O)N2CCNCC2)ccc1Nc1cc2c(cn1)N(C)C(=O)c1ccccc1N2C [Compound 62] | 11.7 | -17 | 87.8 | 80.3 | 27.7 | 60 | 2.5 | 66.2 | 15.8 | -1.4 | -10.4 | 31.9
CCOc1cc(C(=O)N2CCC(N3CCN(C)CC3)CC2)ccc1Nc1cc2c(cn1)N(C)C(=O)c1occc1N2C [Compound 65] | -0.6 | 4.6 | 87.3 | 78.6 | 13.9 | 39.7 | 0.8 | 61.7 | -79.4 | -3.2 | 11.3 | 31.6
CCOc1cc(C(=O)N2CC[C@@H](N(C)C)C2)ccc1Nc1cc2c(cn1)N(C)C(=O)c1ccccc1N2C [Compound 115] | 18.4 | 1.5 | 92.5 | 80.1 | 68.3 | 83.5 | -86.1 | 75.7 | -30.7 | 3.4 | 57.1 | 53.7

From patent US20170008888A1 (KYORIN PHARMACEUTICAL CO., LTD., priority 2014, published 2017)
